Measurements: US10945969B2, “Compositions containing thymohydroquinone and their method of preparation” (SAMI LABS LIMITED, priority 2017, dated 2021)
One block for each compound: values may come before it.

Experiments:
[1] = compared with thymoquinone; cited from earlier work
[2] = Accelerated stability study; assay type: physicochemical; conditions: for THQ content by GC (%) / Difference in THQ content (%) / Percentage difference in THQ / TQ content by GC (%) / Difference in TQ content / Percentage difference in TQ: accelerated stability
[3] = Long term stability study; assay type: physicochemical
[4] = compared with thymoquinone; cited from earlier work; remark: listed apart in the source
[5] = over the accelerated stability study

THQ content by GC (%) ([2]; 1st month): 0.037%
Difference in THQ content (%) ([2]; 1st month vs initial): 0.004%
Percentage difference in THQ ([2]; 1st month vs initial): +12.12%
THQ content by GC (%) ([2]; 2nd month): 0.041%
Difference in THQ content (%) ([2]; 2nd month vs initial): 0.008%
Percentage difference in THQ ([2]; 2nd month vs initial): +24.24%
THQ content by GC (%) ([2]; 3rd month): 0.092%
Difference in THQ content (%) ([2]; 3rd month vs initial): 0.059%
Percentage difference in THQ ([2]; 3rd month vs initial): +178.78%
THQ content by GC (%) ([2]; 6th month): 0.120%
Difference in THQ content (%) ([2]; 6th month vs initial): 0.087%
Percentage difference in THQ ([2]; 6th month vs initial): +263.63%
Difference in THQ content (%) ([2]; Initial (0 month)): 0%
Percentage difference in THQ ([2]; Initial (0 month)): 0%
THQ content by GC (%) ([2]; Initial (0 month)): 0.033%
thymohydroquinone quantity, trend [2, 5]: gradual increase
THQ content by GC (%) ([3]; 3rd month): 0.095%
Difference in THQ content ([3]; 3rd month vs initial): 0.062%
Percentage difference in THQ ([3]; 3rd month vs initial): +187.88%
THQ content by GC (%) ([3]; 6th month): 0.138%
Difference in THQ content ([3]; 6th month vs initial): 0.105%
Percentage difference in THQ ([3]; 6th month vs initial): +318.18%
Difference in THQ content ([3]; Initial (0 Month)): 0%
Percentage difference in THQ ([3]; Initial (0 Month)): 0%
THQ content by GC (%) ([3]; Initial (0 Month)): 0.033%
Compound: Cc1cc(O)c(C(C)C)cc1O [THQ, thymohydroquinone]
antioxidant potential [1]: more potent
anti-inflammatory potential [4]: more potent

TQ content by GC (%) ([2]; 1st month): 0.717%
Difference in TQ content ([2]; 1st month vs initial): 0.016%
Percentage difference in TQ ([2]; 1st month vs initial): −2.18%
TQ content by GC (%) ([2]; 2nd month): 0.706%
Difference in TQ content ([2]; 2nd month vs initial): 0.027%
Percentage difference in TQ ([2]; 2nd month vs initial): −3.68%
TQ content by GC (%) ([2]; 3rd month): 0.622%
Difference in TQ content ([2]; 3rd month vs initial): 0.111%
Percentage difference in TQ ([2]; 3rd month vs initial): −15.14%
TQ content by GC (%) ([2]; 6th month): 0.548%
Difference in TQ content ([2]; 6th month vs initial): 0.185%
Percentage difference in TQ ([2]; 6th month vs initial): −25.23%
Difference in TQ content ([2]; Initial (0 month)): 0%
Percentage difference in TQ ([2]; Initial (0 month)): 0%
TQ content by GC (%) ([2]; Initial (0 month)): 0.733%
content of thymoquinone, trend [2, 5]: decrease
TQ content by GC (%) ([3]; 3rd month): 0.643%
Difference in TQ content ([3]; 3rd month vs initial): 0.09%
Percentage difference in TQ ([3]; 3rd month vs initial): −12.27%
TQ content by GC (%) ([3]; 6th month): 0.634%
Difference in TQ content ([3]; 6th month vs initial): 0.099%
Percentage difference in TQ ([3]; 6th month vs initial): −13.50%
Difference in TQ content ([3]; Initial (0 Month)): 0%
Percentage difference in TQ ([3]; Initial (0 Month)): 0%
TQ content by GC (%) ([3]; Initial (0 Month)): 0.733%
Compound: CC1=CC(=O)C(C(C)C)=CC1=O [TQ, thymoquinone]
